Laboratory results: USRE46511E1, “Fused pyrimidine derivatives for inhibition of tyrosine kinase activity” (HANMI SCIENCE CO., LTD., priority 2010, dated 2017)
Where two headings read alike, the source gives them in different places.

Key:
[1] = tested on: HCC827 (EGFR DelE746_A750); assay: Inhibition test for growth of cancer cell expressing EGFR (SRB), HCC827; assay type: cell-based; settings: HCC827 cells, 72 hours, SRB, read-out: GI50 HCC827 EGFR DelE746_A750;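 further: cells in 96-well plates exposed to tenfold serial dilutions from 100 µM, fixed with trichloroacetic acid, SRB-stained, absorbance read at 540 nm, DMSO under 1%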
[2] = tested on: NCI-H1975 (EGFR L858R/T790M); assay: Inhibition test for growth of cancer cell expressing EGFR (MTS), NCI-H1975; assay type: cell-based; settings: NCI-H1975 cells, 48 hours, MTS, read-out: GI50 NCI-H1975 EGFR L858R/T790M
A431 (EGFR WT) = assay: Inhibition test for growth of cancer cell expressing EGFR (SRB), A431; assay type: cell-based; settings: Homo sapiens, A-431; A431 cells, 72 hours, SRB; read-out: GI50 A431 EGFR WT;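 further: cells in 96-well plates exposed to tenfold serial dilutions from 100 µM down to 10^−6 µM, DMSO under 1%, SRB staining read as absorbance at 540 nm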
Method: A431 cell line was incubated in a high-glucose DMEM (Dulbecco's Modified Eagle's Medium) supplemented with 10% fetal bovine serum (FBS) and 1% penicillin/streptomycin (Gibco BRL), and HCC827 and NCI-H1975 cell lines were incubated in an RPMI medium supplemented with 10% FBS, 1% penicillin/streptomycin and 1% sodium pyruvate.
The cancer cell lines stored in a liquid nitrogen tank were each quickly thawed at 37° C., and centrifuged to remove the medium. The resulting cell pellet was mixed with a culture medium, incubated in a culture flask at 37° C. under 5% CO2 for 2 to 3 days, and the medium was removed. The remaining cells were washed with DPBS (Dulbecco's Phosphate Buffered Saline) and separated from the flask by using Tripsin-EDTA. […] 100 μl of the diluted cell solution was added to each well of a 96-well plate, and incubated at 37° C. under 5% CO2 for 1 day.
In case that the test compound was not soluble in DMSO, 1% HCl was added thereto and treated in a 40° C. water bath for 30 mins until a complete dissolution was attained. The DMSO solution containing test compound was diluted with a culture medium to a final concentration of 100 μM, and then diluted 10 times serially to 10^−6 μM (a final concentration of DMSO was less than 1%).
The medium was removed from each well of the 96-well plate. And then, 100 μl of a test compound solution was added to each well holding the cultured cells, and the plate was incubated at 37° C. under 5% CO2 for 72 hours (except that NCI-H1975 cells were incubated for 48 hours). After removing the medium from the plate, 50 μA of 10% trichloroacetic acid was added to each well, and the plate was kept at 4° C. for 1 hour to fix the cells to the bottom of the plate. The added 10% trichloroacetic acid solution was removed from each well, the plate was dried, 100 μA of an SRB (Sulforhodamine-B) dye solution at a concentration of 0.4% dissolved in 1% acetic acid was added thereto, and the resulting mixture was reacted for 10 mins at room temperature. After removing the dye solution, the plate was washed with water, and well dried. When the dye solution was not effectively removed by water, 1% acetic acid was used. 150 μA of 10 mM trisma base was added to each well, and the absorbance at 540 nm wavelength was determined with a microplate reader.

BTK = biological target: T1, BTK (Homo sapiens, UniProt Q06187); assay: z-lyte kinase assay, BTK; assay type: biochemical
T1 construct: purchased Invitrogen
T1 sequence (Q06187 whole entry): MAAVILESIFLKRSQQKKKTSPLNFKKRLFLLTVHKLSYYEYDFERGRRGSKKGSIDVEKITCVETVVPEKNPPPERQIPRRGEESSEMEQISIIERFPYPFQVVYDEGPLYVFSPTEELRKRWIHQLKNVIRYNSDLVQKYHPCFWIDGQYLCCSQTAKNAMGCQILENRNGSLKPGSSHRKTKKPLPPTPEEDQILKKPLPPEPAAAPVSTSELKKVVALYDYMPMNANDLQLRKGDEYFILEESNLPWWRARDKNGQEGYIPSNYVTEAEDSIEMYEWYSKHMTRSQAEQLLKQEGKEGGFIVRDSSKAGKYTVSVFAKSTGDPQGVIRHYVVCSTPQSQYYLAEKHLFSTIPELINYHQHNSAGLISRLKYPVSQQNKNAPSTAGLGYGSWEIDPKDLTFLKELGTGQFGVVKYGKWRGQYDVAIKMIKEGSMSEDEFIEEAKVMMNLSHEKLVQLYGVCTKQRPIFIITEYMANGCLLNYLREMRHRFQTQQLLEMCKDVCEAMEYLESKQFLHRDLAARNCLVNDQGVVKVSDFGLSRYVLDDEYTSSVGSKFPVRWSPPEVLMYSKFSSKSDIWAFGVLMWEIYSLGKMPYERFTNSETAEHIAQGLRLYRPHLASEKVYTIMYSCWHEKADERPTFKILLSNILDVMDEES
Method: (§1) The inhibiting activities of the inventive compounds obtained in Examples 1 to 237 against EGFR WT and EGFR L858R/T790M kinase were determined using z-lyte kinase assay kit (Invitrogen, PV3191). The kinases used in the test were purchased from Invitrogen.
(§2) The compounds obtained in Examples 1 to 237 were each prepared to 10 mM DMSO solution, and a solution containing 4% DMSO were prepared therefrom and diluted to a concentration of 1 μM to 0.0001 μM. […] The test was conducted in a 384 well polystyrene flat-bottomed plates. 5 μl of the diluted solution of each compound was added to each well, and 10 μl of a mixture of peptide substrate and kinase in a suitable concentration and 5 μl of 5˜300 μM ATP solution were successively added thereto and the plate was incubated in a stirrer at room temperature for 60 minutes. After 60 mins, 10 μl of coloring reagent was added to the resulting mixture to initiate a fluorescence reaction of peptide substrate and a terminating solution was added thereto for terminating the reaction. A fluorescence value of each well was determined with a fluorescence meter (Molecular Device) at 400 nm (excitation filter) and 520 nm (emission filter). […] The calculation of IC50 and the result analysis were carried out by using Microsoft Excel.
(§3) The inhibiting activities of the inventive compounds obtained in Examples 1 to 237 against BTK and JAK3 kinases were determined, respectively. The procedure of Test Example 2 was repeated except that BTK and JAK3 kinases (Invitrogen) were employed instead of using the EGFR kinase.

JAK3 = biological target: T2, JAK3 (Homo sapiens, UniProt P52333); assay: z-lyte kinase assay, JAK3; assay type: biochemical
T2 construct: purchased Invitrogen
T2 sequence (P52333 1-1124): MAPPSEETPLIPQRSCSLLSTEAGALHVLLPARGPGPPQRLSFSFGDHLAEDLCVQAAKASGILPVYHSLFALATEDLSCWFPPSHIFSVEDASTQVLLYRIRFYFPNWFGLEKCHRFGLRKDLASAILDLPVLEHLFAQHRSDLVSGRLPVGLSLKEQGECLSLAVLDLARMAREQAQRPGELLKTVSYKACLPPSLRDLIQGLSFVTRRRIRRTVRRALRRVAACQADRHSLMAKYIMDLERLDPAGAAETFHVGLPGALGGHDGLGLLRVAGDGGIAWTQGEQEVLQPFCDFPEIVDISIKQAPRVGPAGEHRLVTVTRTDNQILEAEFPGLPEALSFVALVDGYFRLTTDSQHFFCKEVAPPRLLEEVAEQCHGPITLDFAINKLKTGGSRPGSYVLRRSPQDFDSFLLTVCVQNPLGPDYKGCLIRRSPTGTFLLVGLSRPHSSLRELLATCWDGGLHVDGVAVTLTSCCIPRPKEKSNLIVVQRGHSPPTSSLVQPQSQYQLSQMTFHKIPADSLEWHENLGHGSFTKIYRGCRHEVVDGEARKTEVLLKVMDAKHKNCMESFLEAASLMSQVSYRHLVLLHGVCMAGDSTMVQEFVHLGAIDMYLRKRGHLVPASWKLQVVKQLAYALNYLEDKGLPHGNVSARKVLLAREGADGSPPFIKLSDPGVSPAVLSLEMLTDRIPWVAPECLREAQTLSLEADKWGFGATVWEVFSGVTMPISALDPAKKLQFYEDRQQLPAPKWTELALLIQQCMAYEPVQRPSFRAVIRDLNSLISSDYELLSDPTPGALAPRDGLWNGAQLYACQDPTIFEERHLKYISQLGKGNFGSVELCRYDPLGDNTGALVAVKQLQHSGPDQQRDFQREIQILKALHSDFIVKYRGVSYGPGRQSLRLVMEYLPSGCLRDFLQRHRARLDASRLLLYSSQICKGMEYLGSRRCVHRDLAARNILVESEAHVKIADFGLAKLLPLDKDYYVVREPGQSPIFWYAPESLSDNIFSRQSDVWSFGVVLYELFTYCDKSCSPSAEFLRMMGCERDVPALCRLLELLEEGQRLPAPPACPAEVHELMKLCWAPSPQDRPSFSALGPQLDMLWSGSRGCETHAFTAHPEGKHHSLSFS
Method: as §1, §2, §3

Row | SMILES | GI50 ([1]; Homo sapiens, HCC827, 72 h) | GI50 ([2]; Homo sapiens) | GI50 (A431 (EGFR WT)) | IC50 (BTK) | IC50 (JAK3) | GI50 [1] | GI50 [2]
1 | C=CC(=O)Nc1cccc(Oc2nc(Nc3ccc(OCCN(C)C)cc3)nc3ccsc23)c1 [Example 62] | < 50 nM | < 50 nM | > 1000 nM | ≤ 50 nM | ≤ 50 nM | – | –
2 | C=CC(=O)Nc1cccc(Oc2nc(Nc3ccc(N4CCC(CN(C)C)CC4)cc3)nc3ccsc23)c1 [Example 41] | < 50 nM | < 50 nM | – | 50 to 100 nM | 50 to 100 nM | – | –
3 | C=CC(=O)Nc1cccc(Oc2nc(Nc3ccc(N4CCC(N5CCCC5)CC4)cc3)nc3ccsc23)c1 [Example 47] | < 50 nM | < 50 nM | – | 50 to 100 nM | 50 to 100 nM | – | –
4 | C=CC(=O)Nc1cccc(Oc2nc(Nc3ccc(NC4CCN(C)CC4)c(F)c3)nc3ccsc23)c1 [Example 129] | < 50 nM | < 50 nM | > 1000 nM | ≤ 50 nM | ≤ 50 nM | – | –
5 | C=CC(=O)Nc1cccc(Oc2nc(Nc3ccc(C4CCN(C)CC4)c(F)c3)nc3ccsc23)c1 [Example 127] | < 50 nM | < 50 nM | – | 50 to 100 nM | 50 to 100 nM | – | –
6 | C=CC(=O)Nc1cccc(Oc2nc(Nc3ccc(N4CC5CC4CN5C)cc3)nc3ccsc23)c1 (stereo not drawn) [Example 28] | 50 to 100 nM | < 50 nM | – | ≤ 50 nM | ≤ 50 nM | – | –
7 | C=CC(=O)Nc1cccc(Oc2nc(Nc3ccc(CN4CCN(C)CC4)nc3)nc3ccsc23)c1 [Example 169] | < 50 nM | 50 to 100 nM | – | ≤ 50 nM | 50 to 100 nM | – | –
8 | C=CC(=O)Nc1cccc(Oc2nc(Nc3ccc(C4CCCN(C)C4)cc3)nc3ccsc23)c1 (stereo not drawn) [Example 55] | < 50 nM | < 50 nM | – | 50 to 100 nM | ≤ 50 nM | – | –
9 | C=CC(=O)Nc1cccc(Oc2nc(Nc3ccc(CN4CCC(N(C)C)CC4)cc3)nc3ccoc23)c1 [Example 232] | 50 to 100 nM | 50 to 100 nM | – | ≤ 50 nM | ≤ 50 nM | – | –
10 | C=CC(=O)Nc1cccc(Oc2nc(Nc3ccc(N4CCC(CO)CC4)cc3)nc3ccsc23)c1 [Example 40] | < 50 nM | 50 to 100 nM | – | 50 to 100 nM | 50 to 100 nM | – | –
11 | C=CC(=O)Nc1cccc(Oc2nc(Nc3ccc(N4CCN(C5CCN(C)CC5)CC4)nc3)nc3ccsc23)c1 [Example 148] | < 50 nM | < 50 nM | – | ≤ 50 nM | 50 to 100 nM | – | –
12 | C=CC(=O)Nc1cccc(Oc2nc(Nc3ccc(NC4CCN(C)CC4)cc3)nc3ccsc23)c1 [Example 59] | < 50 nM | 100 to 1000 nM | – | ≤ 50 nM | 50 to 100 nM | – | –
13 | C=CC(=O)Nc1cccc(Oc2nc(Nc3ccc(S(=O)(=O)NCCN(C)C)cc3)nc3ccsc23)c1 [Example 72] | < 50 nM | < 50 nM | – | ≤ 50 nM | ≤ 50 nM | – | –
14 | C=CC(=O)Nc1cccc(Oc2nc(Nc3ccc(CN(CC)CC)cc3)nc3ccsc23)c1 [Example 174] | < 50 nM | < 50 nM | – | ≤ 50 nM | 50 to 100 nM | – | –
15 | C=CC(=O)Nc1cccc(Oc2nc(Nc3ccc(N4CCN(C)CC4)c(Cl)c3)nc3ccsc23)c1 [Example 7] | < 50 nM | < 50 nM | – | ≤ 50 nM | 50 to 100 nM | – | –
16 | C=CC(=O)Nc1cccc(Oc2nc(Nc3ccc(CS(C)(=O)=O)cc3)nc3ccsc23)c1 [Example 95] | < 50 nM | < 50 nM | – | 50 to 100 nM | 50 to 100 nM | – | –
17 | C=CC(=O)Nc1cccc(Oc2nc(Nc3ccc(N4CC[C@@H](n5ccnc5)C4)cc3)nc3ccsc23)c1 [Example 36] | – | – | – | 50 to 100 nM | 50 to 100 nM | 50 to 100 nM | < 50 nM
18 | C=CC(=O)Nc1cccc(Oc2nc(Nc3ccc(NCCN(C)C)cc3)nc3ccsc23)c1 [Example 57] | < 50 nM | 100 to 1000 nM | – | ≤ 50 nM | 50 to 100 nM | – | –

The remaining lines, values ahead:

Row | GI50 ([1]; Homo sapiens, HCC827, 72 h) | GI50 ([2]; Homo sapiens) | GI50 (A431 (EGFR WT)) | IC50 (BTK) | IC50 (JAK3) | GI50 [1] | GI50 [2] | SMILES
19 | < 50 nM | < 50 nM | > 1000 nM | ≤ 50 nM | 50 to 100 nM | – | – | C=CC(=O)Nc1cccc(Oc2nc(Nc3ccc(C4=CCN(C)CC4)cc3)nc3ccsc23)c1 [Example 51]
20 | < 50 nM | < 50 nM | 100 to 1000 nM | ≤ 50 nM | ≤ 50 nM | – | – | C=CC(=O)Nc1cccc(Oc2nc(Nc3ccc(C(=O)NC4CCN(C(C)C)CC4)cc3)nc3ccsc23)c1 [Example 83]
21 | < 50 nM | < 50 nM | > 1000 nM | ≤ 50 nM | 50 to 100 nM | – | – | C=CC(=O)Nc1cccc(Oc2nc(Nc3ccc(OC4CCN(CC)CC4)cc3)nc3ccsc23)c1 [Example 66]
22 | < 50 nM | < 50 nM | > 1000 nM | ≤ 50 nM | 50 to 100 nM | – | – | C=CC(=O)Nc1cccc(Oc2nc(Nc3ccc(C(=O)N4CCN(CC)CC4)c(Cl)c3)nc3ccsc23)c1 [Example 203]
23 | < 50 nM | < 50 nM | 100 to 1000 nM | ≤ 50 nM | ≤ 50 nM | – | – | C=CC(=O)Nc1cccc(Oc2nc(Nc3ccc(N4CCN(C)CC4)cc3)nc3ccoc23)c1 [Example 228, N-(3-((2-((4-(4-methylpiperazin-1-yl)phenyl)amino)furo[3,2-d]pyrimidin-4-yl)oxy)phenyl)acrylamide]
24 | < 50 nM | < 50 nM | > 1000 nM | ≤ 50 nM | ≤ 50 nM | – | – | C=CC(=O)Nc1cccc(Oc2nc(Nc3ccc(NCCN(C)C)c(F)c3)nc3ccsc23)c1 [Example 199]
25 | < 50 nM | < 50 nM | > 1000 nM | ≤ 50 nM | ≤ 50 nM | – | – | C=CC(=O)Nc1cccc(Oc2nc(Nc3ccc(N4CCC(N5CCCCC5)CC4)c(F)c3)nc3ccsc23)c1 [Example 125]
26 | 50 to 100 nM | < 50 nM | > 1000 nM | ≤ 50 nM | ≤ 50 nM | – | – | C=CC(=O)Nc1cccc(Oc2nc(Nc3ccc(N4CCOCC4)cc3)nc3ccsc23)c1 [Example 29]
27 | < 50 nM | < 50 nM | > 1000 nM | ≤ 50 nM | ≤ 50 nM | – | – | C=CC(=O)Nc1cccc(Oc2nc(Nc3ccc(C(=O)NC4CCN(C)CC4)c(Cl)c3)nc3ccsc23)c1 [Example 142]
28 | < 50 nM | < 50 nM | > 1000 nM | ≤ 50 nM | ≤ 50 nM | – | – | C=CC(=O)Nc1cccc(Oc2nc(Nc3ccc(NC4CCN(C)CC4)c(F)c3)nc3ccoc23)c1 [Example 237]
29 | < 50 nM | < 50 nM | > 1000 nM | ≤ 50 nM | 50 to 100 nM | – | – | C=CC(=O)Nc1cccc(Oc2nc(Nc3ccc(CN4CCN(C)CC4)cc3)nc3ccsc23)c1 [Example 182]
